From patent publication US20240360089A1, “Metabolically Stable HDAC Inhibitors with Trifluoromethylpyruvamide as Metal-Binding Group” (The University of Toledo, priority 2023, published 2024)
pIC50: −log10 of the molar value. Read-outs that look alike come from different tables or passages of the source. Blank lines part the entries; values can stand above or below the molecule they belong to.

Key:
HCT116 cells = assay: Growth inhibition / cell viability assay (methylene blue), HCT116; type: cell-based, human
Method: Cell feasibility was examined using methylene blue staining. Cells were plated at a rate of 5000/well in 96 well plates (n=3) respectively and treated the next day. Three days after treatment, cells were fixed/stained in methylene blue saturated in 50% ethanol for 30 min at room temperature. Excessive water was used to wash off extra dye from the plates.

sixty cell lines [1] = assay: NCI 60 cell five-dose assay; type: cell-based; settings: Total Growth Inhibition
sixty cell lines [2] = assay: NCI 60 cell one-dose assay; type: cell-based; settings: result in words
PARP1 = assay: Western blot analysis of PARP1 cleavage in HCT116 cells; type: cell-based, human; settings: HCT116 cells treated for 24 h; measure of caspase dependent cell death
Method: FIG. 13: Western blot analysis of PARP1 cleavage. HCT116 cells were treated with compounds 83, 84, and 85 at the indicated concentrations for 24 hr. Western blots were probed with an antibody that recognizes a cleaved form of PARP (Cell Signaling Technology 5626) as a measure of caspase dependent cell death.
To determine whether the compounds herein induced apoptosis, the enzyme Poly (ADP ribose) polymerase 1 (PARP1) was analyzed by western blotting. Caspase-dependent proteolytic cleavage of PARP1 is one of the hall marks of apoptosis and antibodies that specifically recognize the cleavage products are available. […] HCT116 cells were treated with compounds 83, 84, and 85 for 24 h.
NCI-H522 cell pellets obtained were lysed using lysis buffer containing 50 mM Tris (pH 7.4), 150 mM NaCl, 0.5% NP-40, (supplemented with 1 μg/ml aprotinin, 2 μg/ml leupeptin, 1 μg/ml pepstatin A, 1 mM DTT, and […]) for 30 minutes on ice and centrifuged at 13×10^3 g for 25 minutes at 4° C. The protein levels of the obtained lysates were normalized using BCA Protein Assay Kit (Pierce) and separated by SDS-polyacrylamide gel electrophoresis (12.5% acrylamide). Transfer to polyvinylidene difluoride membranes (Millipore) was followed by obstruction of membranes with blocking buffer containing 5% (w/v) non-fat dry milk dissolved in PBST [1×PBS containing 0.05% (v/v) Tween 20] for 1 hour at room temperature. Membranes were then incubated with corresponding primary antibodies overnight at 4° C. The membranes were then washed (3×15 min each) with PBST and incubated with secondary antibodies conjugated to horse-radish peroxidase, obtained from Biorad, and used at a dilution of 1:10,000. Bound antibodies were detected using enhanced chemiluminescence (Biorad).

[3] = S9 fraction metabolic stability assay (LC-ESI-MS); type: in vitro ADME; settings: human liver S9 fraction
Source text: Previous studies established that trifluoromethyl ketones are metabolically unstable and reduced in vivo to trifluoromethyl alcohols (TFMAs). This metabolic reduction caused a major loss in activity. […] It was believed that in TFPAs, the hydrate form of the ketone is stabilized compared to TFMKs, and is therefore less susceptible to reductive metabolism. […] Metabolic stability studies are primarily conducted using liver microsomal assays, as the predominant cytochrome P450 enzymes present in them are responsible for the metabolism of most xenobiotics in the human body. However, P450 transformations are mostly oxidative in nature, precluding their use to assess the stability of ketone drugs against reductive metabolism. […] Thus, using a liver extract containing both cytosol and microsomal enzymes would be more appropriate for this assay. This was accomplished by using the S9 fraction, which is basically the supernatant obtained from centrifugation of hepatocytes at 9000 g and contains both liver cytosol and microsomal enzymes. LC-ESI-MS was used to monitor the reduction of TFPA 60 over time and it was compared with TFMK 91.
A protocol similar to the one previously employed by others using Human Liver S9 fractions instead of liver microsomes was used for the metabolism studies. The assay was initiated by incubating a mixture of the substrate (0.02 mM), buffer (0.1M), and NADPH (1 mM) at 37° C. for ten minutes, followed by addition of the S9 fraction (0.5 mg) to the mixture and gentle mixing. The total volume of the reaction mixture was maintained at 1 mL. […] The reactions in the aliquots were terminated by adding an equal volume of ethyl acetate, mixing thoroughly, and transferring into micro centrifuge tubes. They were vortexed for 2 minutes and then subjected to centrifugation at 10,000×g for 15 minutes to remove the proteins. The top organic layers were extracted and evaporated under reduced pressure. The organic residues from the aliquots were dissolved in methanol first, then diluted 1:1 with water, and analyzed using LC-ESI-MS. A 450 μL aliquot of compound 60 with concentration of 0.02 mM contains 9 nanomoles, which after evaporation, was dissolved in 500 μL of methanol to give 18 μM in concentration of 60. This was diluted 1:1 with water to give a final concentration of 9 μM, which was used for LC-ESI-MS. Similarly, 200 μL of TFMK 91 at a concentration of 0.02 mM contains 4 nanomoles, which after removing ethyl acetate, and dissolving in 250 μL of methanol gives 16 μM concentration of 91. This was diluted 1:1 with water to give 8 μM final concentration for LC-ESI-MS.
The solvent flow rate was 0.2 mL/min, and the sample injection volume was 20 μL. […]

[4] = Homo sapiens, HCT-116, zinc-binding group screen, growth inhibition, HCT116 cells, maximum concentration of 100 μM, read-out: HCT116 IC50
[5] = Homo sapiens, HCT-116, read-out: IC50 (μM) HCT116
[6] = Homo sapiens, HCT-116, cap group SAR, HCT116 cell line, maximum concentration of 40 μM, read-out: IC50
[7] = zinc-binding group screen, growth inhibition, HCT116 cells, maximum concentration of 100 μM

SMILES: O=C(CCCCCCNC(=O)C(O)(O)C(F)(F)F)Nc1ccc(Cl)cc1 [Compound 64, N-(4-chlorophenyl)-7-(3,3,3-trifluoro-2,2-dihydroxypropanamido)heptanamide]
TGI (sixty cell lines [1]): 26.92 µM

SMILES: COc1ccccc1NC(=O)CCCCCCNC(=O)C(O)(O)C(F)(F)F [Compound 66, N-(2-methoxyphenyl)-7-(3,3,3-trifluoro-2,2-dihydroxypropanamido)heptanamide]
pIC50 (HCT116 cells; [6]): 5.00
melting point: 105 to 110 °C

SMILES: O=C(CCCCCCNC(=O)C(O)(O)C(F)(F)F)Nc1ncc(-c2ccc(Br)cc2)s1 [Compound 85, N-(5-(4-bromophenyl)thiazol-2-yl)-7-(3,3,3-trifluoro-2,2-dihydroxypropanamido)heptanamide]
cytostatic / cytotoxic activity in NCI 60 assays (sixty cell lines [2]): cytotoxic effects
PARP1 cleavage (cleaved PARP1) (PARP1): Dose-dependent elevation of cleaved PARP1 was detectable
TGI (sixty cell lines [1]): 11.4 µM

SMILES: OC(O)(c1c(F)c(F)c(-n2cc(-c3ccccc3)nn2)c(F)c1F)C(F)(F)F
pIC50 (HCT116 cells; [4]): < 4.00

SMILES: O=C(CCCCCCC(O)C(F)(F)F)Nc1ccccc1 (stereo not shown)
pIC50 (HCT116 cells; [6]): < 4.40

SMILES: O=C(CCCCCCNC(=O)C(O)(O)C(F)(F)F)Nc1ccc(Br)cc1 [Compound 65, N-(4-bromophenyl)-7-(3,3,3-trifluoro-2,2-dihydroxypropanamido)heptanamide]
TGI (sixty cell lines [1]): 20.89 µM

SMILES: O=C(CCCCCCNC(=O)C(O)(O)C(F)(F)F)Nc1ncc(-c2ccc(O)cc2)s1 [Compound 86, N-(5-(4-hydroxyphenyl)thiazol-2-yl)-7-(3,3,3-trifluoro-2,2-dihydroxypropanamido) heptanamide]
melting point: 145 to 150 °C

SMILES: COc1cccc(NC(=O)CCCCCCNC(=O)C(O)(O)C(F)(F)F)c1 [Compound 59, N-(3-methoxyphenyl)-7-(3,3,3-trifluoro-2,2-dihydroxypropanamido)heptanamide]
pIC50 (HCT116 cells; [6]): 5.21
melting point: 120 to 125 °C

SMILES: O=C(CCCCCCNC(=O)C(O)(O)C(F)(F)F)Nc1nc(-c2ccccc2)c(-c2ccccc2)s1 [Compound 68, N-(4,5-diphenylthiazol-2-yl)-7-(3,3,3-trifluoro-2,2-dihydroxypropanamido)heptanamide]
pIC50 (HCT116 cells; [6]): 4.52
melting point: 143 to 148 °C

SMILES: OC(c1c(F)c(F)c(-n2cc(-c3ccccc3)nn2)c(F)c1F)C(F)(F)F (stereo not shown)
pIC50 (HCT116 cells; [4]): < 4.00

SMILES: CCOc1ccc(-c2cnc(NC(=O)CCCCCCNC(=O)C(O)(O)C(F)(F)F)s2)cc1 [Compound 87, N-(5-(4-ethoxyphenyl)thiazol-2-yl)-7-(3,3,3-trifluoro-2,2-dihydroxypropanamido)heptanamide]
pIC50 (HCT116 cells; [6]): 5.39
melting point: 138 to 143 °C

SMILES: O=C(CCCCCCNC(=O)C(O)(O)C(F)(F)F)Nc1ccc(-c2ccccc2)cc1 [Compound 69, N-([1,1′-biphenyl]-4-yl)-7-(3,3,3-trifluoro-2,2-dihydroxypropanamido)heptanamide]
TGI (sixty cell lines [1]): 15.14 µM

SMILES: O=C(CCCCCCNC(=O)C(O)(O)C(F)(F)F)Nc1nccs1 [Compound 60, N-(thiazol-2-yl)-7-(3,3,3-trifluoro-2,2-dihydroxypropanamido)heptanamide]
time over which parent M+1 peak did not disappear ([3]; NADPH, 37° C., LC-ESI-MS, aliquots at 1h, 2 hrs): over 2 hours
metabolic reduction to the alcohol ([3]; result in words): no reduction to the alcohol
melting point: 137 to 142 °C

SMILES: O=C(CCCCCCNC(=O)C(O)(O)C(F)(F)F)Nc1ccccc1Br [Compound 75, N-(2-bromophenyl)-7-(3,3,3-trifluoro-2,2-dihydroxypropanamido)heptanamide]
pIC50 (HCT116 cells; [6]): 4.84
melting point: 108 to 113 °C

SMILES: O=C(CCCCCCNC(=O)C(O)C(F)(F)F)Nc1nccs1 (stereo not shown) [Compound 92]
IC50 (HCT116 cells; cap group SAR, HCT116 cell line, maximum concentration of 40 μM): inactive

SMILES: O=C(CCCCCCNC(=O)C(O)C(F)(F)F)Nc1nccs1 (stereo not shown) [drawing 78]
pIC50 (HCT116 cells; [6]): < 4.40

The next lines start with the values.

pIC50 (HCT116 cells; [4]): < 4.00
SMILES: C/C(=N\O)C(=O)NCCCCC(=O)Nc1ccccc1

IC50 (HCT116 cells; [5]): 9.14 µM
melting point: 123 to 128 °C
SMILES: O=C(CCCCCCNC(=O)C(O)(O)C(F)(F)F)Nc1ccccc1 [Compound 10c, N-phenyl-7-(3,3,3-trifluoro-2,2-dihydroxypropanamido)heptanamide]

pIC50 (HCT116 cells; [4]): < 4.00
SMILES: O=C(CCCCCNC(=O)c1ccc[nH]1)Nc1ccccc1

pIC50 (HCT116 cells; [4]): < 4.00
SMILES: O=C(CCCCCNC(=O)c1cc(=O)c(O)co1)Nc1ccccc1

pIC50 (HCT116 cells; [4]): < 4.00
SMILES: C/C(=N\O)C(=O)NCCCCCCC(=O)Nc1ccccc1

pIC50 (HCT116 cells; [4]): < 4.00
SMILES: CC(=O)C(=O)NCCCCCC(=O)Nc1ccccc1

pIC50 (HCT116 cells; [4]): < 4.00
SMILES: CC(=O)C(=O)NCCCCC(=O)Nc1ccccc1

pIC50 (HCT116 cells; [4]): < 4.00
SMILES: O=C(CCCCCCCNC(=O)c1cc(=O)c(O)co1)Nc1ccccc1 [drawing 33]

pIC50 (HCT116 cells; [4]): < 4.00
SMILES: C/C(=N\O)C(=O)NCCCCCC(=O)Nc1ccccc1

pIC50 (HCT116 cells; [4]): < 4.00
SMILES: O=C(CCCCNC(=O)c1cc(=O)c(O)co1)Nc1ccccc1

pIC50 (HCT116 cells; [4]): < 4.00
SMILES: CC(=O)C(=O)NCCCCCCC(=O)Nc1ccccc1

pIC50 (HCT116 cells; [4]): < 4.00
SMILES: NC(=O)C(=O)NCCCCCC(=O)Nc1ccccc1

pIC50 (HCT116 cells; [4]): < 4.00
SMILES: NC(=O)C(=O)NCCCCC(=O)Nc1ccccc1

pIC50 (HCT116 cells; [4]): < 4.00
SMILES: NC(=O)C(=O)NCCCCCCCC(=O)Nc1ccccc1

HCT116 IC50 (HCT116 cells; [7]): inactive
SMILES: O=C(CCCCCCCNC(=O)c1cc(=O)c(O)co1)Nc1ccccc1 [Compound 89]

IC50 (HCT116 cells; [5]): 54.4 µM
pIC50 (HCT116 cells; [4]): 4.26
HCT116 IC50 (HCT116 cells; [7]): demonstrated antiproliferative activity
melting point: 103 to 108 °C
SMILES: O=C(CCCCCNC(=O)C(O)(O)C(F)(F)F)Nc1ccccc1 [Compound 10b, N-phenyl-6-(3,3,3-trifluoro-2,2-dihydroxypropanamido)hexanamide]

pIC50 (HCT116 cells; [4]): < 4.00
SMILES: O=C(CCCCCCNC(=O)c1cc(=O)c(O)co1)Nc1ccccc1
